{
  "source": "the NIST ThermoML archive (doi:10.1021/je050216m)",
  "details": "Crystal, Closed cell (Static) method",
  "note": "“And” between values parts separate entries of the source, which are not always exact repeats. Equal entries are not always repeated. ± gives the expanded uncertainty stated by the source.",
  "data": [
    {"smiles": "c1ccc2ccccc2c1", "note": "[naphthalene]", "values": [
      {"measurement": "vapor or sublimation pressure", "setting": "258.48 K", "value": "0.00011 ± 0.0001", "unit": "kPa"},
      {"measurement": "vapor or sublimation pressure", "setting": "258.49 K", "value": "0.00011 ± 0.0001", "unit": "kPa"},
      {"measurement": "vapor or sublimation pressure", "setting": "263.48 K", "value": "0.00022 ± 0.0001", "unit": "kPa"},
      {"measurement": "vapor or sublimation pressure", "setting": "263.49 K", "value": "0.00023 ± 0.0001", "unit": "kPa"},
      {"measurement": "vapor or sublimation pressure", "setting": "268.48 K", "value": "0.00042 ± 0.0001 kPa and 0.00041 ± 0.0001 kPa and 0.00043 ± 0.0001 kPa"},
      {"measurement": "vapor or sublimation pressure", "setting": "273.48 K", "value": "0.00078 ± 0.0001 kPa and 0.00077 ± 0.0001 kPa"},
      {"measurement": "vapor or sublimation pressure", "setting": "273.49 K", "value": "0.00078 ± 0.0001 kPa and 0.00077 ± 0.0001 kPa"},
      {"measurement": "vapor or sublimation pressure", "setting": "273.68 K", "value": "0.0008 ± 0.0001 kPa and 0.00081 ± 0.0001 kPa"},
      {"measurement": "vapor or sublimation pressure", "setting": "278.48 K", "value": "0.00137 ± 0.00012 kPa and 0.00138 ± 0.00012 kPa"},
      {"measurement": "vapor or sublimation pressure", "setting": "278.49 K", "value": "0.00138 ± 0.00012 kPa [middle of 4 runs]"},
      {"measurement": "vapor or sublimation pressure", "setting": "283.49 K", "value": "0.00241 ± 0.00012", "unit": "kPa"},
      {"measurement": "vapor or sublimation pressure", "setting": "288.49 K", "value": "0.00411 ± 0.00014 kPa and 0.0041 ± 0.00014 kPa"},
      {"measurement": "vapor or sublimation pressure", "setting": "293.49 K", "value": "0.00688 ± 0.00016", "unit": "kPa"},
      {"measurement": "vapor or sublimation pressure", "setting": "298.49 K", "value": "0.0114 ± 0.00022 kPa and 0.0113 ± 0.00022 kPa"},
      {"measurement": "vapor or sublimation pressure", "setting": "303.5 K", "value": "0.0183 ± 0.00029 kPa and 0.0182 ± 0.00029 kPa"},
      {"measurement": "vapor or sublimation pressure", "setting": "308.51 K", "value": "0.029 ± 0.00041", "unit": "kPa"},
      {"measurement": "vapor or sublimation pressure", "setting": "313.52 K", "value": "0.0454 ± 0.00058 kPa and 0.0455 ± 0.00058 kPa"}
    ]}
  ]
}
